How the values were obtained:
[1] = system: retinas from 7 month old wild-type mice; experiment: Retinal explants, ex vivo retina whole mount model; assay type: cell-based, mouse; conditions: ex vivo organ culture, 4 day period, 5 μmol/L
Protocol: Eyes from 7 months old animals were enucleated and immersed in ice-cold HBSS containing penicillin (100 U/mL) and streptomycin (100 μg/mL). Retinas were carefully dissected under stereomicroscope and divided into four quadrants with four deep radial incisions. The explants were transferred onto tissue culture inserts (0.4 μm pore, Millipore; Cork, Ireland) with the retinal ganglion cell side facing up. The inserts were placed into the wells of a 6-well plate. A serum free retinal explant media (Neurobasal A, Invitrogen) supplemented with 2% B27 (Invitrogen), 1% N2 (Invitrogen), L-glutamine (0.8 mmol/L), penicillin (100 U/mL), and streptomycin (100 μg/mL) were added to the bottle of the wells and 3 μL of media was dropped on top of the retina to keep it moist. […] After 4 days, retinas were fixed and processed as described above.

[2] = system: murine brain microvascular endothelial cells; experiment: Transendothelial electrical resistance (TEER); assay type: cell-based, mouse; conditions: 19,20-EDP/19,20-DHDP 3 μmol/L, VEGF 20 ng/ml, 24 hours
Protocol: Impedance measurements were performed using isolated murine brain microvascular endothelial cells with a cellZscope device (nano-Analytics) as described^38. […] Measurements were performed four times in quadruplicate with endothelial cells from four different cell preparations.

γ-secretase = γ-secretase (Homo sapiens, UniProt P49768); conditions: by redistribution of PS1 out of lipid rafts, retina; cited from earlier work
pericytes [3] = experiment: N-cadherin internalization assay; assay type: cell-based, human; conditions: 3 μmol/L, 3 hours (not shown)
Protocol: (§1) VE-cadherin internalization was determined as described^40. Endothelial cells were cultured on culture slides (BD, Heidelberg, Germany) coated with crosslinked gelatin until confluent and starved with 2% FCS overnight. Cells were then incubated with antibody against extracellular domain of human VE-cadherin (clone BV6, ALX-803-305 Enzo Life Sciences, Lörrach, Germany) at 4° C. for 1 hour in MCDB131 with 1% BSA medium. Unbound antibody was removed by rinsing cells with ice-cold MCDB131 medium. […] To block the degradation of internalized VE-cadherin chloroquine (300 μmol/L) was be added to the incubation medium. To assess internalized endogenous VE-cadherin cells were washed with ice-cold acid wash buffer (Hanks buffer, pH=2.7, containing 25 mmol/L glycine and 1% BSA) to assess total VE-cadherin cells were rinsed with ice-cold neutral washing buffer (Hanks buffer with 1% BSA, pH=7.4). Cells were fixed with 4% PFA for 15 minutes at 4° C. and then processed for immunofluorescence. To assess N-cadherin internalization, pericytes were incubated with an antibody against the extracellular domain of human N-cadherin (clone 8C11, 350802 BioLegend, CA. USA) at 4° C. for 1 hour in DMEM containing 1% BSA. […] Samples were imaged with an SP8 confocal microscope (Leica) and internalized particles were quantified using ImageJ (NIH) software.

human endothelial cells = experiment: VE-cadherin staining and internalization in cultured endothelial cells; assay type: cell-based; conditions: 3 hours; for internalization of VE-cadherin: in the presence of t-AUCB (10 μmol/L), pre-labelled antibody and immunoprecipitation
Protocol: Cells were fixed with 4% PFA for 10 min at room temperature. After washing with PBS samples were blocked and permeabilized with 1% BSA, 5% horse serum, 0.5% Triton X-100 at room temperature for 2 hours or at 4° C. overnight before being exposed to primary antibody (4° C., overnight). After extensive washing and exposure to Alexa Fluor-coupled secondary antibody (1:200, 2 hours, room temperature) samples were mounted in fluorescent mounting medium and analyzed with a confocal microscope; Leica SP8 confocal microscope and LASX software (Wetzlar, Germany) or Carl Zeiss LSM-780 and ZEN software (Jena, Germany) as described^6′^32.
as §1, with “immunofluorescence.” for “immunofluorescence. To assess N-cadherin internalization, pericytes were incubated with an antibody against the extracellular domain of human N-cadherin (clone 8C11, 350802 BioLegend, CA. USA) at 4° C. for 1 hour in DMEM containing 1% BSA.”
Confluent cultures of human endothelial cells were incubated with antibodies recognizing the extracellular domains of human VE-cadherin (BV6 antibody) at 4° C. […] Samples were washed with lysis buffer and analyzed by SDS-PAGE.

pericytes [4] = experiment: In vitro pericyte migration on endothelial cell monolayer; assay type: cell-based, human; conditions: 3 μmol/L
Protocol: Human umbilical vein endothelial cells were isolated and cultured as described^37, seeded on μ-slides (ibidi, Martinsried, Germany) and grown to confluence. Pericytes were labeled with cell tracker green (Invitrogen) and added to the endothelial cell monolayer. Cells were treated with either solvent (0.03% DMSO), 19,20-EDP (3 μmol/L), 19,20-DHDP (3 μmol/L). Cells were incubated in an IncuCyte imaging system (Essen Bioscience) that took photographs automatically every 15 minutes for 48 hours. Pericyte movement on top of the endothelial cell monolayer were tracked manually and analyzed with Image J (NIH, Bethesda, Md., USA). In some experiments pericytes were treated with small interfering RNA directed against N-cadherin (sc-29403, Santa Cruz). Transfection was performed with lipofectamine 2000 (Invitrogen) following the manufacturer's instructions and a scrambled control siRNA was used as control.

[5] = system: endothelial cell-pericyte co-cultures; experiment: Endothelial cell-pericyte co-culture: cadherin expression, lipid rafts, immunoprecipitation; assay type: cell-based, human; conditions: for N-cadherin expression in cocultured cells: 19,20-EDP/19,20-DHDP 3 μmol/L, VEGF 20 ng/ml; for N-cadherin expression in cocultured cells / association (co-precipitation) of PS1 with N-cadherin and VE-cadherin / association of p120 catenin with N- or VE-cadherin: 24 hours; for lipid raft association and membrane presentation of N-cadherin: endothelial cell-pericyte cocultures; for association (co-precipitation) of PS1 with N-cadherin and VE-cadherin / association of p120 catenin with N- or VE-cadherin: immunoprecipitation from co-cultures
Protocol: Human umbilical vein endothelial cells were cultured on fibronectin coated dishes until confluent. Then pericytes were seeded on top of the endothelial cells (PC:EC=1:5) and cocultured for a further 3 days. […] Cells were then lysed with HEPES buffer: 25 mmol/L HEPES pH 7.4, 150 mmol/L NaCl, complete protease inhibitor cocktail (Roche), and 1% digitonin (Sigma). Following centrifugation at 17,000 g for 10 minutes, supernatants (1 mg of protein) were pre-cleaned with protein A/G agarose (Pierce) for 30 mins. Supernatants were then incubated with anti-VE-cadherin (1:1000, AF1002 R&D systems, Abingdon, UK) or N-cadherin (1:1000, 33-3900 life technologies, CA, USA) antibodies at 4° C. for 2 hours and then treated with protein A/G agarose for a further 2 hours. Samples were washed with lysis buffer and analyzed by SDS-PAGE.
Samples were separated by SDS-PAGE and subjected to Western blotting as described^41. Membranes were blocked in 3% BSA in PBS, incubated with primary and horseradish peroxidase-conjugated secondary antibodies in blocking solution, and detection was performed with a Lumi-Light plus western blotting substrate (Roche).
Lipid rafts were isolated as described with modifications^42. Briefly, cells were harvested by scraping and homogenized at 4° C. in sodium carbonate (0.5 mol/L, pH11) using a glass homogenizer, followed by sonication. Then, equal amounts of protein were adjusted to a final sucrose concentration of 45% (final volume, 4 mL) and transferred to 12 mL ultracentrifuge tubes. A discontinuous sucrose gradient was then formed by sequentially overlaying 4 mL of 35% and 4 ml, of 5% sucrose. Samples were subjected to ultracentrifugation (35,000 rpm, 4° C. for 20 hours) using a Beckman SW 41 rotor (Krefeld, Germany). After centrifugation, twelve 1 mL fractions were collected using a capillary tube connected to a peristaltic pump, and equal volumes of each faction were analyzed by SDS-PAGE using antibodies against flotillin 1 (1:2000, 610820 BD Biosciences, Heidelberg, Germany), VE-cadherin (1:1000, sc-28644 Santa Cruz, Darmstadt, Germany) and N-cadherin (1:1000, 33-3900 lifetechnologies, CA, USA).

sEH = target: T1, sEH (Homo sapiens, UniProt P34913); conditions: cited from earlier work
T1 sequence (P34913 1-555): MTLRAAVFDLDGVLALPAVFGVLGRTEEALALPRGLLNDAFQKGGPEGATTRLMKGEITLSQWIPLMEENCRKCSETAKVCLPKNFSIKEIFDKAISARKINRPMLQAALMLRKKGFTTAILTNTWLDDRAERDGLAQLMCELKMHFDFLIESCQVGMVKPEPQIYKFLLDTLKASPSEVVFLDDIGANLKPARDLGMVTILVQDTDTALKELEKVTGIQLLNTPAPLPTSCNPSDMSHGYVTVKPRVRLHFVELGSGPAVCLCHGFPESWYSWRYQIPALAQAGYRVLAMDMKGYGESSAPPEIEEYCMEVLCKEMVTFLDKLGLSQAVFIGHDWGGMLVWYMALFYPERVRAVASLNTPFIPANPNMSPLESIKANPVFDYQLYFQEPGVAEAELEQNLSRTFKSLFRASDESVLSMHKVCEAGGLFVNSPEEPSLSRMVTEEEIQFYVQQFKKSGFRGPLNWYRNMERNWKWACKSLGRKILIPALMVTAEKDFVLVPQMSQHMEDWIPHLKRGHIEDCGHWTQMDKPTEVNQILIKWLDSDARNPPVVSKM

Ins2Akita mice = conditions: mouse, in vivo
[6] = system: retinas from wild-type and Ins2Akita mice; experiment: Retinal growth factor and Notch gene expression in mice treated with sEH inhibitor; assay type: in vivo, mouse
Protocol: Total RNA from retinas was extracted using an RNeasy kit (QIAGEN, Hilden, Germany), and equal amounts (1 μg) of total RNA was reverse transcribed (Superscript III; Invitrogen). Gene expression levels were detected using SYBR Green (Absolute QPCR SYBR Green Mix; Thermo Fisher Scientifc). The relative expression levels of the different genes studied was calculated using the 2^−ΔΔCt method with the 18S RNA as a reference.

Compound	capillary pericyte loss and pericyte migration [1]	transendothelial electrical resistance [2]	N-cadherin internalization (pericytes [3])	internalization of VE-cadherin (human endothelial cells)	N-cadherin expression in cocultured cells [5]	lipid raft association and membrane presentation of N-cadherin [5]	association (co-precipitation) of PS1 with N-cadherin and VE-cadherin [5]	association of p120 catenin with N- or VE-cadherin [5]	other results
19,20-dihydroxydocosapentaenoic acid [19,20-DHDP]	induced	decreased	induce	detected	decreased	disrupt	attenuated	did not influence	γ-secretase activity (γ-secretase): inhibit; VE-cadherin staining of confluent endothelial cells (human endothelial cells; 3 μmol/L): discontinuous; pericyte motility (pericytes [4]): increase
VEGF		alterations induced by 19,20-DHDP were however less pronounced than those elicited by vascular endothelial cell growth factor			without effect		attenuated	decreased recovery	
CCC1OC1CC=CCC=CCC=CCC=CCC=CCCC(=O)O (stereo not shown) [19,20-EDP, 19,20 epoxydocosapentaenoic acid]	largely ineffective		not	not	without effect	not	without effect		
CCCCCCCCCCCCNC(=O)NC12CC3CC(CC(C3)C1)C2 [ADU, N-Adamantyl-N′-dodecyl urea]									activity on sEH (sEH): particularly high activity
O=C(NC12CC3CC(CC(C3)C1)C2)N[C@H]1CC[C@H](Oc2ccc(C(=O)O)cc2)CC1 (relative stereo) [t-AUCB, trans-4-[4-(3-adamantan-1-ylureido)cyclohexyloxy]-benzoic acid]									N-cadherin expression in retinas (Ins2Akita mice): largely maintained; co-localization of VE-cadherin and N-cadherin with PS1 in retinas (Ins2Akita mice): maintained; loss of desmin positive cells in retinas (Ins2Akita mice): prevented; Hey1 and Jagged 1 expression [6]: tend to increase; PDFG receptor β levels in retinas [6]: failed to significantly alter; PDGFB expression in retinas [6]: increased

Reference: patent publication US20200317813A1, “TREATMENT AND DIAGNOSIS OF NON-PROLIFERATIVE DIABETIC RETINOPATHY” (Johann Wolfgang Goethe-Universitat Frankfurt am Main, priority 2016, published 2020)
